Counter-ions that a name gives are not always drawn.
Key:
[1] = test system: human pancreatic cancer Capan-2 xenograft tumor; experiment: In vivo drug efficacy on Capan-2 transplanted tumor in nude mice; details: BID, Capan-2 Xenograft model
Experimental: 3. Assay of In Vivo Drug Efficacy on Capan-2 Transplanted Tumor in Nude Mice
Capan-2 cells were cultured in McCoy's 5A medium, containing 10% fetal bovine serum FBS, in a 37° C. incubator with 5% CO2. Tumor cells were collected after passaging and growing to a suitable concentration and during the logarithmic growth phase. The cells resuspended in McCoy's 5A medium were counted and the cell suspension was adjusted to a concentration of 2×10^7/mL for inoculation.
Establishment of human pancreatic cancer Capan-2 xenograft tumor. Cells were collected and the concentration was adjusted to 2×10^7 (resuspend with McCoy's 5A medium to a cell suspension containing 50% Martigel). Under aseptic conditions, 0.1 mL of tumor cells was injected subcutaneously into the right back of the mouse, and the number of cells inoculated per mouse was 2×10^6. After the tumor was grown to a certain size, digital vernier calipers was used to measure the length (a) and width (b) of the tumor, and the tumor volume was calculated. The calculation formula of tumor volume (TV) was: TV=a×b^2/2.
Capan-2 tumor cells were inoculated. When the tumor was grown to about 150 cubic millimeters, mice were divided into groups with 6 mice in each group. The day of grouping was regarded as day 0, and the drug was administered on the day of grouping. During the assay, the animal's body weight and tumor size were measured twice a week, and the animal's clinical symptoms were observed and recorded every day. For each administration, the most recently weighed animal body weight was referred to.
The evaluation index of anti-tumor activity is relative tumor proliferation rate T/C (%), wherein T/C (%)>40% means ineffective, and T/C (%)<40% and statistically P<0.05 means effective. The calculation formula of T/C (%) is: T/C (%)=(TRTV/CRTV)×100%. TRTV is relative tumor volume of the treatment group, and CRTV is relative tumor volume of the negative control group. TGI (%)^b tumor inhibition rate=(average tumor volume or weight of negative control group-average tumor volume or weight of administration group)/average tumor volume or weight of negative control group×100%. TGI (%)^a=[(1−(average tumor volume of a certain administration group at the time of measurement-average tumor volume of the administration group at the beginning of the administration))/(average tumor volume of vehicle control group at the time of measurement-average tumor volume of the vehicle control group at the beginning of the administration)]×100%.

[2] = Pharmacokinetic evaluation of compounds in mice; format: in vivo; details: mouse, plasma, male CD-1 mice; for clearance / bioavailability / half-life / Vd: IV 0.5 mg/kg; for bioavailability / AUC(0-t): PO 2.5 mg/kg; for half-life: read-out: T1/2 IV (converted); for Vd: read-out: Vdss; for AUC(0-t): read-out: AUC0-last PO; for Cmax: single dose, route not stated (IV 0.5 mg/kg, PO 2.5 mg/kg)
Experimental: Assay 4: Pharmacokinetic Evaluation of Compounds
Assay purpose: Pharmacokinetics of compounds in […] mice was assayed.
CD-1 mice (male, 7-9 weeks old, Shanghai Slack)
The pharmacokinetic characteristics of rodents after intravenous (IV) and oral (PO) administration of compounds were assayed by standard protocols. In the assay, mice were given a single intravenous injection and oral administration. The vehicle for intravenous injection was water. The oral vehicle was 0.5% hypromellose. Four male CD-1 mice were used in this project. Two mice were administered intravenously at a dose of 0.5 mg/kg, and plasma samples were collected at 0 h (before administration) and 0.083, 0.25, 0.5, 1, 2, 4, 8, and 24 h after administration. The other two mice were orally administered by gavage at a dose of 2.5 mg/kg, and plasma samples were collected at 0 h (before administration) and 0.25, 0.5, 1, 2, 4, 8, and 24 h after administration. Whole blood samples within 24 hours were collected, and centrifuged at 3000 g for 15 minutes. The supernatant was separated to obtain a plasma sample, and protein was precipitated by adding 4 times volume of acetonitrile solution containing internal standard. The mixture was centrifuged to obtain a supernatant, and an equal volume of water was added to the obtained supernatant. The mixture was then centrifuged to obtain a supernatant for injection. The blood drug concentration was quantitatively analyzed by LC-MS/MS analysis method, and pharmacokinetic parameters were calculated, such as peak concentration (Cmax), clearance rate (CL), half-life (T1/2), […] (Vdss), area under the drug-time curve (AUC0-last), and bioavailability (F), etc.
The assay results are shown in Table 4: The compounds of the present disclosure have good pharmacokinetic properties.

Capan-2 cells = experiment: Anti-proliferative activity on Capan-2 cells; format: cell-based; details: Homo sapiens, Capan-2, 120 h; 5 days, CellTiter-Glo
Experimental: 2. Assay of Anti-Proliferative Activity on Capan-2 Cells
Capan-2 cells were planted in a white 96-well plate with 80 μL of cell suspension per well, which contained 5000 Capan-2 cells. The cell plate was placed in a carbon dioxide incubator for culture overnight.
The assay compound was serially diluted 3-fold with a discharge gun to the 9th concentration, that is, from 200 μM to 30 nM, in duplicate. 78 μL of medium was added to the middle plate, and then 2 μL of the serially diluted compound was transferred to each well of the middle plate according to the corresponding position. After mixing, 20 μL of the mixture was transferred to each well of the cell plate. The cell plate was incubated in a carbon dioxide incubator for 5 days. Another cell plate was prepared, and read on the day of drug addition. The signal value was used as the maximum value (The value of Max in the equation below) in data analysis. 25 μL of chemiluminescence detection reagent for cell viability was added to each well of this cell plate, and this cell plate was incubated at room temperature for 10 minutes to stabilize the luminescence signal. A multi-label analyzer was used to read results.
After the cell plate was cultured for 5 days, 25 μL of Promega CellTiter-Glo reagent was added to each well of the cell plate. The cell plate was incubated at room temperature for 10 minutes to stabilize the luminescence signal. A multi-label analyzer was used to read results.
The value of IC50 can be obtained by curve fitting. Table 2 provides the inhibitory activity of the compounds of the present disclosure on Capan-2 cell proliferation.

[3] = test system: STF reporter gene for WNT pathway (Porcupine of the Wnt signaling pathway); experiment: Inhibitory activity on Super-Top-Flash (STF) reporter gene; format: cell-based; details: HEK293 STF and L wnt3A cells 1:1, 24 hours, Bright-Glo
Experimental: 1. Assay of Inhibitory Activity on Super-Top-Flash (STF) Reporter Gene
HEK293 STF and L wnt3A cells were planted at a ratio of 1:1 in a white 96-well plate with 80 μL of cell suspension per well, which contained 20,000 HEK293 STF cells and 20,000 L wnt3A cells. The cell plate was placed in a carbon dioxide incubator for culture overnight.
The assay compound was serially diluted 5-fold with a discharge gun to the 8th concentration, that is, from 400 μM to 5.12 nM, in duplicate. 78 μL of medium was added to the middle plate, and then 2 μL of the serially diluted compound was transferred to each well of the middle plate according to the corresponding position. After mixing, 20 μL of the mixture was transferred to each well of the cell plate. The cell plate was placed in a carbon dioxide incubator for 24 hours.
100 μL of Promega Bright-Glo reagent was added to each well of the cell plate, and the cell plate was incubated at room temperature for 10 minutes to stabilize the luminescence signal. A multi-label analyzer was used to read results.
The original data of the multi-label analyzer was used for calculation, and the value of IC50 can be obtained by curve fitting. Table 1 provides data of the inhibitory activity of the compounds of the present disclosure on the Wnt signaling pathway.

Row | Compound | T/C % ([1]; 5 mg/Kg, 31 days) | TGI % ([1]; 5 mg/Kg, 31 days) | clearance [2] | bioavailability [2] | half-life [2] | Vd [2] | AUC(0-t) [2] | Cmax [2] | IC50 (Capan-2 cells) | IC50 [3] | T/C % ([1]; 2.5 mg/Kg) | TGI % ([1]; 2.5 mg/Kg)
1 | Cc1cc(-c2ncc(CNc3nccn4c(-c5ccccc5)cnc34)cc2C)ccn1 [Compound 1] | 21.58% | 96.7% | 5.05 mL/min/kg | 76.3% | 2.23 h | 0.633 L/kg | 16.5 µM·h | 3030 nM | 0.71 nM | 0.12 nM | – | –
2 | Cc1cc(-c2ncc(CNc3nccn4c(-c5cc(F)cc(F)c5)cnc34)cc2C)ccn1 [Compound 30 (hydrochloride)] | 25.31% | 84.93% | 5.75 mL/min/kg | 98.8% | 2.5 h | 0.666 L/kg | 16.2 µM·h | 2580 nM | 0.71 nM | 0.52 nM | 40.18% | 66.67%

Reference: patent publication US12365686B2, “Compound as porcupine inhibitor and use thereof” (JIANGSU KANION PHARMACEUTICAL CO., LTD., priority 2019, dated 2025)
